Source: US20230149507A1, “TREATMENT OF ALT CANCERS” (INSTITUTO DE MEDICINA MOLECULAR JOÃO LOBO ANTUNES, priority 2019, published 2023)

Assays:
Assay type in all cases: cell-based, human
U2OS interphase cells = assay: Telomeric DNA FISH, number and area of telomeric foci, RO-3306 control; details: siCt-transfected cells
Protocol: FIG. 17. FANCM depletion alters telomeric DNA in interphase U2OS cells. (A) Western blot analysis of FANCM protein levels in U2OS cells transfected and treated with RO-3306 as indicated. Cells were harvested 48 hours after transfection. POLD3, RAD51 and PML levels were also analyzed. Beta Actin and LMB1 serve as loading controls. (B) Quantifications of FACS profiles of cells as in A stained with PI. […] R: RO-3306. (C)) Quantifications of numbers of telomeric foci per nucleus in experiments as in A. Each dot represents an individual nucleus. A total of at least 300 nuclei from three independent experiments were analyzed for each sample. Bars and error bars are means and SDs. P values were calculated with a Mann-Whitney U test. (D) Area distribution of telomeric foci areas in experiments as in C. 3D images were sum projected and areas of individual nuclear FISH signals were measured using DAPI staining to identify nuclei (not shown). A total of at least 300 nuclei from three independent experiments were analyzed for each sample. Areas of telomeric foci (in pixels) are binned into 25 intervals of 5-pixel width (x axis; numbers indicate bin centers) and plotted against frequencies (y axis; %). […] (E) Quantification of cells with at least 5 Large (L) foci in experiments as in C. P values were calculated with a two-tailed Student's t-test. *P<0.05, **P<0.005, ***P<0.001, ****P<0.0001. […]

U2OS cells [1] = assay: PML, RAD51, POLD3 localization at telomeres (IF/FISH), RO-3306 control; details: RO-3306 treatment
Protocol: (§1) (A) Quantifications experiments for PML or RAD51 immunostaining combined with telomeric DNA FISH. POLD3 immunostaining combined with RAP1 immunostaining (green); and EdU detection combined with and telomeric DNA FISH. Experiments were performed on U2OS cells transfected with the indicated siRNAs and harvested 48 hours after transfection. Each dot represents an individual nucleus. A total of at least 300 nuclei from three independent experiments were analyzed for each sample. Bars and error bars are means and SDs. P values were calculated with a Mann-Whitney U test. ***P<0.001, ****P<0.0001.
Cells grown on coverslips were incubated in CSK buffer for 7 min on ice. All subsequent treatments were performed at room temperature. Cells were fixed with 4% formaldehyde (Sigma-Aldrich) in 1×PBS for 10 min, permeabilized with CSK buffer for 5 min, and incubated in blocking solution (0.5% BSA, 0.1% Tween-20 in 1×PBS) for 1 h. Coverslips were incubated in blocking solution containing primary antibodies for 1 h, washed three times with 0.1% Tween-20 in 1×PBS for 10 min each, and incubated with secondary antibodies diluted in blocking solution for 50 min. DNA was counterstained with 100 ng/ml DAPI in 1×PBS. For combined IF and DNA FISH, cells were again fixed with 4% formaldehyde in 1×PBS for 10 min, washed three times with 1×PBS, incubated in 10 mM Tris-HCl pH 7.2 for 5 min and then denatured and hybridized with TelC-Cy3 probes as described above. DNA was counterstained with 100 ng/ml DAPI in 0.1 M Tris-HCl pH 7.2, 0.15 M NaCl, 0.08% Tween-20 and coverslips were mounted on slides in Vectashield. […]

U2OS cells [2] = assay: Telomere FISH combined with EdU detection, RO-3306 control; details: RO-3306 treatment; to lower extents than FANCM depletion
Protocol: as §1
24 h after siRNA transfection cells were incubated in 10 μM RO-3306 (Selleckchem). 21.5 h later 10 μM EdU (Thermo Fisher Scientific) was added to the culture medium, followed by a 2.5 h incubation. Cells were first stained as for DNA FISH using the TelC-Cy3 probe and then washed twice with 1×PBS followed by EdU detection using the Click-iT EdU Alexa Fluor 488 Imaging Kit (Thermo Fisher Scientific) according to the manufacturer's instructions. DNA was counterstained with 100 ng/ml DAPI in 1×PBS and coverslips were mounted on slides in Vectashield. Image acquisition and analysis were as for DNA FISH.

For `O=C1NC(=NCc2cccs2)S/C1=C\c1ccc2ncccc2c1` [RO-3306], the “number of telomeric foci” value (U2OS interphase cells; 10 μM RO-3306) was “less telomeric foci than control cells”, the “cells with at least 5 large foci” value (U2OS interphase cells; RO-3306-treated) was about 15% and the “number of telomeric PML foci” value (U2OS cells [1]) was “did not substantially affect”. For the same compound, the “number of telomeric RAD51 foci” value (U2OS cells [1]) was “did not substantially affect”, the “number of telomeric POLD3 foci” value (U2OS cells [1]; less importantly than FANCM depletion) was “increased” and the “incidence of telomeric EdU foci” value (U2OS cells [2]) was “increased the incidence of telomeric EdU foci”.
